From the supplement of paper PMC11208160

Experiment: recombinant UMI read abundance after kanamycin selection (control-corrected) (log10(CPM+1)); higher = more efficient recombination; extreme values may be limits of the assay; sequences stand for … in AGTGCAGAGAAAATCGGCCAGTTTTCTCTGCCTGCAGTCCGCATGCCGTGGGACCCCTTGGGTTCTAACCTGTTGCCTAGATTTATGCAGCGGACTGCCTTTCTCCCAAAGTGATAAACCGG…AGGTTGGTTTCACT; site = the 11-nt donor
Experimental: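 Pooled E. coli donor-specificity screen for the IS621 bridge recombinase. Each library member carries a reprogrammed 11-nt donor and a full-length LE bridge RNA expressed in cis from the natural promoter, with a paired donor-binding loop (8-nt LDG + 4-nt RDG) and a target-binding loop fixed to T5. It is co-electroporated with a T5 target plasmid; recombinase is induced with 0.07 mM IPTG and recombinants are selected on kanamycin. UMIs are counted as CPM, averaged over two biological replicates and corrected by the unselected control. Molecule = full bridge RNA written as DNA, built from the T5 scaffold: LDG = donor specificity nt 1-8, RDG = reverse complement of nt 8-11.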
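Also: IS621 bridge recombinase in Escherichia coli cells against a fixed T5 target plasmid.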

Sequence | recombinant UMI read abundance (log10)
CGCTCAGCATGGACCGGTTTTCCCGGTAATCCGTATTTGGG (site GGCTCAGCTCC) | 0
TTCGCGCCATGGACCGGTTTTCCCGGTAATCCGTATTTGTA (site TTCGCGCCTTA) | 0.00689
CCGAAGCCATGGACCGGTTTTCCCGGTAATCCGTATTTGTG (site CCGAAGCCTCA) | 0.0182
CCTTGCCCATGGACCGGTTTTCCCGGTAATCCGTATTTGAT (site ACTTGCCCTAT) | 0.00442
CTAGACTCATGGACCGGTTTTCCCGGTAATCCGTATTTGAC (site CTAGTATCTGT) | 0
GCCTAGCCATGGACCGGTTTTCCCGGTAATCCGTATTTGCC (site CCCTAGCCTGG) | 0
CCTAATACATGGACCGGTTTTCCCGGTAATCCGTATTTGGC (site CCTAATCCTGC) | 0.00798
TACTTGACATGGACCGGTTTTCCCGGTAATCCGTATTTGCT (site TATTTGACTAG) | 0.0574
CAAGCAGCATGGACCGGTTTTCCCGGTAATCCGTATTTGCT (site CAAGCGGCTAG) | 0.638
ACGGCGTCATGGACCGGTTTTCCCGGTAATCCGTATTTGGT (site ACGGCGTCTAC) | 2.01
ATTGAGACATGGACCGGTTTTCCCGGTAATCCGTATTTGGT (site ATTGAGACTAC) | 1.39
CCGTAACCATGGACCGGTTTTCCCGGTAATCCGTATTTGGT (site CCGTAACCTAC) | 0
AACATGCCATGGACCGGTTTTCCCGGTAATCCGTATTTGCT (site AACATGCCTAG) | 1.43
TACTTGACATGGACCGGTTTTCCCGGTAATCCGTATTTGCT (site TACTTGACTAA) | 0.00336
CTTTAGACATGGACCGGTTTTCCCGGTAATCCGTATTTGAG (site CCTTAGACTCT) | 0
TTAGTAACATGGACCGGTTTTCCCGGTAATCCGTATTTGAC (site TTAGTAACTGT) | 2.16

Sequence | recombinant UMI read abundance (log10)
GTTGTTCCATGGACCGGTTTTCCCGGTAATCCGTATTTGGT (site GTTGTACCTAC) | 0.00624
AGTACACCATGGACCGGTTTTCCCGGTAATCCGTATTTGAC (site TGTACACCTGT) | 0
TCCTACGCATGGACCGGTTTTCCCGGTAATCCGTATTTGCC (site TCCTACGCTGG) | 0
TCAGAGACATGGACCGGTTTTCCCGGTAATCCGTATTTGCG (site TCAGAGACTTG) | 1.84
AACCGACCATGGACCGGTTTTCCCGGTAATCCGTATTTGAT (site AACCGTCCTAT) | 0.0119
CAATCAGCATGGACCGGTTTTCCCGGTAATCCGTATTTGCT (site CAAACAGCTAG) | 0
ATACTAACATGGACCGGTTTTCCCGGTAATCCGTATTTGGA (site GTACTAACTTC) | 0.275
ACACACCCATGGACCGGTTTTCCCGGTAATCCGTATTTGAC (site ACACACCCTGT) | 0.957
GTGGCGGCATGGACCGGTTTTCCCGGTAATCCGTATTTGTG (site GTGGCGGCTCA) | 0.696
CTCCTTGCATGGACCGGTTTTCCCGGTAATCCGTATTTGTA (site CTCCTTGCTTA) | 0
TAGAATTCATGGACCGGTTTTCCCGGTAATCCGTATTTGTA (site TAGAATTCTTA) | 1.67
ATCTGGACATGGACCGGTTTTCCCGGTAATCCGTATTTGCC (site ATCTGGACTGG) | 1.25
CACTCGTCATGGACCGGTTTTCCCGGTAATCCGTATTTGCC (site CACTCTTCTGG) | 0
GCAATTGCATGGACCGGTTTTCCCGGTAATCCGTATTTGCC (site GCAATTGCTGG) | 0
ATTGATACATGGACCGGTTTTCCCGGTAATCCGTATTTGGT (site ATTGAGACTAC) | 0.00596
CGTGGAACATGGACCGGTTTTCCCGGTAATCCGTATTTGTT (site CGTGGACCTAA) | 0.071
